From patent publication US8835461B2, “Substituted 3-hydroxy-4-pyridone derivative” (priority 2009, dated 2014)
Like-named read-outs stand apart in the source and are kept apart here.

Target: Cap-dependent endonuclease (CEN); RNP fraction containing PB1•PB2•PA complex (Influenza A virus, UniProt P15659)
Experiment: Measurement of cap-dependent endonuclease (CEN) inhibitory activity
Assay type: biochemical, influenza A/WSN/33 virus
[1] = RNP enzyme from A/WSN/33 virus, capped Cy3/BHQ2-labelled 30mer RNA substrate, 60 minutes at room temperature, read-out: CEN IC50
[2] = statement in text following Table 36, same CEN assay, read-out: IC50 (CEN)

Work on `O=C(NS(=O)(=O)C1CC1)c1cn(Cc2ccccc2-c2ccccc2)cc(O)c1=O` [Example 195] yielded an IC50 [1] of 677 nM.
`O=C(O)c1cn(C[C@@H]2CCCN2c2ccccc2)cc(O)c1=O` [Example 57] showed an IC50 [1] of 426 nM.
For `O=c1c(O)cn(CC2(c3cccc(F)c3)CCCC2)cc1-c1nnn[nH]1` [Example 233], the IC50 [2] was ≤ 1000 nM.
`O=C(O)c1cn(CC2(c3ccccc3)CCOCC2)cc(O)c1=O` [Example 183] was tested, and the IC50 [1] was 177 nM.
In the case of `O=C(O)c1cn(CC2(c3ccc4c(c3)OCO4)CCCC2)cc(O)c1=O` [Example 171], the IC50 [1] is reported as 16 nM.
For `Cn1cc(C2(Cn3cc(O)c(=O)c(C(=O)O)c3)CCCC2)c2ncccc21` [Example 242], the IC50 [2] was ≤ 1000 nM.
`O=C(O)c1cn(CC2(c3cccc(C(F)(F)F)c3)CCCC2)cc(O)c1=O` [Example 167] gave an IC50 [1] of 12 nM.
With `O=C(O)c1cn(CC2(c3ccnc(NCC4CCCCC4)c3)CCCC2)cc(O)c1=O` [Example 239] the IC50 [2] was ≤ 1000 nM.
For `CC(=O)c1ccc(-c2ccccc2Cn2cc(O)c(=O)c(C(=O)O)c2)cc1` [Example 22], the IC50 [1] was 217 nM.
Work on `O=C(O)c1cn(CC2CCCCN2C(=O)OCc2ccccc2F)cc(O)c1=O` (stereo not drawn) [Example 127] yielded an IC50 [1] of 313 nM.
Compound `O=C(O)c1cn(CC2(c3ccccc3)CCCC2)cc(O)c1=O` [Example 112] has an IC50 [1] of 61 nM.
In the case of `O=C(O)c1cn(CC2(n3ccc4cc(Cl)cnc43)CCCC2)cc(O)c1=O` [Example 240], the IC50 [2] is reported as ≤ 1000 nM.
In the case of `Cn1cc(C2(Cn3cc(O)c(=O)c(C(=O)O)c3)CCCC2)c2ccccc21` [Example 244], the IC50 [2] is reported as ≤ 1000 nM.
For `O=C(O)c1cn(CC2(c3ccnc(-n4cccn4)c3)CCCC2)cc(O)c1=O` [Example 238], the IC50 [2] was ≤ 1000 nM.
`CC(C)(Cn1cc(O)c(=O)c(C(=O)O)c1)c1ccccc1` [Example 227] was tested, and the IC50 [2] was ≤ 1000 nM.
`O=C(O)c1cn(CC2(n3cc(C(F)(F)F)c4cccnc43)CCCC2)cc(O)c1=O` [Example 243] was tested, and the IC50 [2] was ≤ 1000 nM.
With `O=C(O)c1cn(Cc2cccn2-c2ccccc2)cc(O)c1=O` [Example 226] the IC50 [2] was ≤ 1000 nM.
In the case of `O=C(O)c1cn(CC2(C(=O)Nc3ccccc3)CCCC2)cc(O)c1=O` [Example 232], the IC50 [2] is reported as ≤ 1000 nM.
For `O=C(O)c1cn(CC2(c3nc4ccccc4s3)CCCC2)cc(O)c1=O` [Example 173], the IC50 [1] was 47 nM.
In the case of `O=C(O)c1cn(CC2(n3ccc4ccccc43)CCCC2)cc(O)c1=O` [Example 186], the IC50 [1] is reported as 35 nM.
With `O=C(O)c1cn(CC2(c3cccc(N4CCCCC4=O)c3)CCCC2)cc(O)c1=O` [Example 235] the IC50 [2] was ≤ 1000 nM.
`O=C(O)c1cn(CC2(c3ccccn3)CCCC2)cc(O)c1=O` [Example 177] showed an IC50 [1] of 110 nM.
`O=C(O)c1cn(CC2(n3ccc4cccnc43)CCCC2)cc(O)c1=O` [Example 185] was tested, and the IC50 [1] was 5 nM.
For `O=C(O)c1cn(CC2(c3cccc(N4CCCC4=O)c3)CCCC2)cc(O)c1=O` [Example 234], the IC50 [2] was ≤ 1000 nM.
Compound `O=C(O)c1cn(CC2(c3ccccc3)Cc3ccccc3C2)cc(O)c1=O` [Example 182] has an IC50 [1] of 278 nM.
Compound `O=C(O)c1cn(CC2(c3cccc4ccccc34)CCCC2)cc(O)c1=O` [Example 178] has an IC50 [1] of 28 nM.
In the case of `N#Cc1ccccc1CN1CCCCC1Cn1cc(O)c(=O)c(C(=O)O)c1` (stereo not drawn) [Example 116], the IC50 [1] is reported as 221 nM.
With `O=C(O)c1cn(Cc2ccccc2-c2ccccc2)cc(O)c1=O` [Example 10] the IC50 [1] was 219 nM.
In the case of `O=C(O)c1cn(Cc2ccccc2-c2ccc(NCC3CCCCC3)nc2)cc(O)c1=O` [Example 52], the IC50 [1] is reported as 459 nM.
For `O=C(O)c1cn(CC2(C(=O)c3ccccc3)CCCC2)cc(O)c1=O` [Example 231], the IC50 [2] was ≤ 1000 nM.
`CCCCS(=O)(=O)NC(=O)c1cn(Cc2ccccc2-c2ccccc2)cc(O)c1=O` [Example 197] gave an IC50 [1] of 531 nM.
`O=c1c(O)cn(Cc2ccccc2-c2ccc(F)c(Cl)c2)cc1O` [Example 222] gave an IC50 [1] of 513 nM.
`COc1ncc(-c2ccccc2Cn2cc(O)c(=O)c(C(=O)O)c2)cn1` [Example 46] gave an IC50 [1] of 325 nM.
`O=C(O)c1cn(CC2CCCC2)cc(O)c1=O` [Example 18] gave an IC50 [1] of 845 nM.
In the case of `Cn1cc(C2(Cn3cc(O)c(=O)c(C(=O)NS(C)(=O)=O)c3)CCCC2)c2ccccc21` [Example 246], the IC50 [2] is reported as ≤ 1000 nM.
`O=C(O)c1cn(CC2(c3cccc(N4CCCS4(=O)=O)c3)CCCC2)cc(O)c1=O` [Example 236] was tested, and the IC50 [2] was ≤ 1000 nM.
